What all share (type): in vivo
The subject of test [1] is Pyricularia oryzae. Conditions: spray application of wettable powder diluted to 500 ppm; rice Koshihikari 2-leaf stage; spray-inoculated with Pyricularia oryzae spores; examined after 7 days.
The test system of test [2] is Pyricularia oryzae. The settings on record: nursery box treated with granules 50 g per box; rice Koshihikari; inoculated 30 days after transplantation; lesions counted after 1 week.
Test [3] concerns Pyricularia oryzae. The settings on record: granules applied to water surface at 3 kg/10 ares; rice Koshihikari; inoculated 30 days after application; lesions checked after 1 week.

Read-outs that look alike come from different tables or passages of the source.

On to `CC(CNC(=O)c1ccccc1)NC(=O)c1ccccc1` (stereo not drawn) [Formula (7), reference compound], for which the “Grade of Effect (preventive value, rice blast controlling effect)” value (shortened to “Grade of Effect”) with Pyricularia oryzae [1] was “D (less than 50%)”; in the test on Pyricularia oryzae [2], “C (less than 50%)”; in the test on Pyricularia oryzae [3], “C (less than 50%)”.

Turning to `CCC(CNC(=O)Oc1ccccc1)NC(=O)OC` (stereo not drawn) [Formula (8), reference compound], the “Grade of Effect” value with Pyricularia oryzae [1] is given as “D (less than 50%)”; in the test with Pyricularia oryzae [2] it was “C (less than 50%)”; in the test with Pyricularia oryzae [3], “C (less than 50%)”.

With `COC(=O)NC(C)CNC(=O)c1ccc(Cl)cc1` (stereo not drawn) [compound 4], the entries for the “Grade of Effect” value with Pyricularia oryzae [1], in the test on Pyricularia oryzae [2] and with Pyricularia oryzae [3] were “A (100%)”, “A (From 80% to 100%)” and “A (From 80% to 100%)”, respectively.

As to `COC(=O)NC(CNC(=O)c1ccccc1)C(C)C` (stereo not drawn) [compound 26], the results for the “Grade of Effect” value with Pyricularia oryzae [1], in the test with Pyricularia oryzae [2] and in the test with Pyricularia oryzae [3] were “A (100%)”, “A (From 80% to 100%)” and “A (From 80% to 100%)”, respectively.

With `COC(=O)NC(CNC(=O)c1ccc(C)cc1)C(C)C` (stereo not drawn) [compound 30], the “Grade of Effect” value is reported as “A (100%)” in the test on Pyricularia oryzae [1], “A (From 80% to 100%)” in the test on Pyricularia oryzae [2] and “A (From 80% to 100%)” with Pyricularia oryzae [3].

As to `COC(=O)NC(CNC(=O)c1ccccc1)c1ccccc1` (stereo not drawn) [compound 66, N-(methoxycarbonyl)-N′-benzoyl-1-phenyl-1,2-ethylenediamine], the “Grade of Effect” value is on record as “A (100%)” in the test on Pyricularia oryzae [1], “A (From 80% to 100%)” in the test with Pyricularia oryzae [2] and “A (From 80% to 100%)” in the test on Pyricularia oryzae [3].

For the molecule `Cc1ccc(C(=O)NCC(C)NC(=O)OC(C)C)cc1` (stereo not drawn) [compound 215], the “Grade of Effect” value in the test on Pyricularia oryzae [1] is “A (100%)”; in the test with Pyricularia oryzae [2] it was “A (From 80% to 100%)”; in the test with Pyricularia oryzae [3], “A (From 80% to 100%)”.

For `CC(CNC(=O)c1ccc(C(C)(C)C)cc1)NC(=O)OC(C)C` (stereo not drawn) [compound 216], the “Grade of Effect” value is reported as “A (100%)” in the test on Pyricularia oryzae [1], “A (From 80% to 100%)” with Pyricularia oryzae [2] and “A (From 80% to 100%)” in the test on Pyricularia oryzae [3].

As to `CC(C)OC(=O)NC(CNC(=O)c1ccccc1)C(C)C` (stereo not drawn) [compound 236], the “Grade of Effect” value in the test on Pyricularia oryzae [1] is recorded as “A (100%)”; with Pyricularia oryzae [2], “A (From 80% to 100%)”; in the test on Pyricularia oryzae [3] it was “A (From 80% to 100%)”.

As for `CC(C)OC(=O)NC(CNC(=O)c1ccc(Cl)cc1)C(C)C` (stereo not drawn) [compound 237], the figures for the “Grade of Effect” value with Pyricularia oryzae [1], in the test with Pyricularia oryzae [2] and in the test with Pyricularia oryzae [3] were “A (100%)”, “A (From 80% to 100%)” and “A (From 80% to 100%)”, respectively.

Take `CC(C)OC(=O)NC(CNC(=O)c1ccc(Cl)c(Cl)c1)C(C)C` (stereo not drawn) [compound 238]: the “Grade of Effect” value is “A (100%)” in the test with Pyricularia oryzae [1], “A (From 80% to 100%)” with Pyricularia oryzae [2] and “A (From 80% to 100%)” in the test with Pyricularia oryzae [3].

For the molecule `Cc1ccccc1C(=O)NCC(NC(=O)OC(C)C)C(C)C` (stereo not drawn) [compound 239], the entries for the “Grade of Effect” value in the test with Pyricularia oryzae [1], with Pyricularia oryzae [2] and in the test with Pyricularia oryzae [3] were “A (100%)”, “A (From 80% to 100%)” and “A (From 80% to 100%)”, respectively.

Consider `Cc1ccc(C(=O)NCC(NC(=O)OC(C)C)C(C)C)cc1` (stereo not drawn) [compound 240], for which the “Grade of Effect” value in the test on Pyricularia oryzae [1] is given as “A (100%)”; with Pyricularia oryzae [2] it was “A (From 80% to 100%)”; in the test on Pyricularia oryzae [3], “A (From 80% to 100%)”.

Regarding `CCc1ccc(C(=O)NCC(NC(=O)OC(C)C)C(C)C)cc1` (stereo not drawn) [compound 241], the results for the “Grade of Effect” value in the test with Pyricularia oryzae [1], in the test on Pyricularia oryzae [2] and in the test on Pyricularia oryzae [3] were “A (100%)”, “A (From 80% to 100%)” and “A (From 80% to 100%)”, respectively.

`CC(C)OC(=O)NC(CNC(=O)c1ccc2ccccc2c1)C(C)C` (stereo not drawn) [compound 242]: the “Grade of Effect” value with Pyricularia oryzae [1] is “A (100%)”; with Pyricularia oryzae [2] it was “A (From 80% to 100%)”; with Pyricularia oryzae [3] it was “A (From 80% to 100%)”.

Take `Cc1ccc(C(=O)NCC(NC(=O)OC(C)C)C(C)C)s1` (stereo not drawn) [compound 243]: the “Grade of Effect” value in the test with Pyricularia oryzae [1] was “A (100%)”; in the test on Pyricularia oryzae [2] it was “A (From 80% to 100%)”; with Pyricularia oryzae [3], “A (From 80% to 100%)”.

As to `Cc1ccc(C(=O)NCC(C)(NC(=O)OC(C)C)C(C)C)cc1` (stereo not drawn) [compound 245], the “Grade of Effect” value with Pyricularia oryzae [1] is on record as “A (100%)”; in the test on Pyricularia oryzae [2], “A (From 80% to 100%)”; in the test with Pyricularia oryzae [3] it was “A (From 80% to 100%)”.

`Cc1ccc(C(=O)NC(C)C(NC(=O)OC(C)C)C(C)C)cc1` (stereo not drawn) [compound 246]: the figures for the “Grade of Effect” value with Pyricularia oryzae [1], in the test with Pyricularia oryzae [2] and in the test on Pyricularia oryzae [3] were “A (100%)”, “A (From 80% to 100%)” and “A (From 80% to 100%)”, respectively.

`CC(C)OC(=O)NC(C(C)C)C(C)NC(=O)c1ccc(Cl)cc1` (stereo not drawn) [compound 247]: the entries for the “Grade of Effect” value with Pyricularia oryzae [1], in the test with Pyricularia oryzae [2] and with Pyricularia oryzae [3] were “A (100%)”, “A (From 80% to 100%)” and “A (From 80% to 100%)”, respectively.

`Cc1ccc(C(=O)NCC(NC(=O)OC(C)C)c2ccccc2)cc1` (stereo not drawn) [compound 279]: the “Grade of Effect” value in the test with Pyricularia oryzae [1] is listed as “A (100%)”; in the test on Pyricularia oryzae [2], “A (From 80% to 100%)”; in the test with Pyricularia oryzae [3], “A (From 80% to 100%)”.

As for `Cc1ccc(C(=O)NCC(NC(=O)OC(C)C)c2ccc(Cl)cc2)cc1` (stereo not drawn) [compound 284], the entries for the “Grade of Effect” value in the test on Pyricularia oryzae [1], with Pyricularia oryzae [2] and in the test on Pyricularia oryzae [3] were “A (100%)”, “A (From 80% to 100%)” and “A (From 80% to 100%)”, respectively.

For `Cc1ccc(C(=O)NCC(Cc2ccccc2)NC(=O)OC(C)C)cc1` (stereo not drawn) [compound 289], the “Grade of Effect” value is “A (100%)” in the test with Pyricularia oryzae [1], “A (From 80% to 100%)” with Pyricularia oryzae [2] and “A (From 80% to 100%)” in the test on Pyricularia oryzae [3].

As for `CC(C)OC(=O)NC(CNC(=O)c1ccc(Cl)cc1)Cc1ccccc1` (stereo not drawn) [compound 290, N-(4-chlorobenzoyl)-N′-(i-propoxycarbonyl)-3-phenyl-1,2-propanediamine], the entries for the “Grade of Effect” value with Pyricularia oryzae [1], in the test on Pyricularia oryzae [2] and in the test on Pyricularia oryzae [3] were “A (100%)”, “A (From 80% to 100%)” and “A (From 80% to 100%)”, respectively.

Regarding `CC(C)COC(=O)NC(CNC(=O)c1ccc(Cl)cc1)C(C)C` (stereo not drawn) [compound 384], the “Grade of Effect” value is recorded as “A (100%)” with Pyricularia oryzae [1], “A (From 80% to 100%)” in the test with Pyricularia oryzae [2] and “A (From 80% to 100%)” in the test on Pyricularia oryzae [3].

With `Cc1ccc(C(=O)NCC(NC(=O)OCC(C)C)C(C)C)cc1` (stereo not drawn) [compound 387], the “Grade of Effect” value with Pyricularia oryzae [1] is reported as “A (100%)”; in the test on Pyricularia oryzae [2], “A (From 80% to 100%)”; in the test on Pyricularia oryzae [3], “A (From 80% to 100%)”.

For `Cc1ccc(C(=O)NCC(NC(=O)OC(C)(C)C)C(C)C)cc1` (stereo not drawn) [compound 464], the “Grade of Effect” value in the test with Pyricularia oryzae [1] is “B (80% or more and less than 100%)”; in the test on Pyricularia oryzae [2], “B (50% or more and less than 80%)”; with Pyricularia oryzae [3], “B (50% or more and less than 80%)”.

`Cc1ccc(C(=O)NCC(C)(NC(=O)OC(C)(C)C)C(C)C)cc1` (stereo not drawn) [compound 469]: the “Grade of Effect” value in the test with Pyricularia oryzae [1] was “B (80% or more and less than 100%)”; in the test with Pyricularia oryzae [2] it was “B (50% or more and less than 80%)”; with Pyricularia oryzae [3] it was “B (50% or more and less than 80%)”.

For `Cc1ccc(C(=O)NC(C)C(NC(=O)OC(C)(C)C)C(C)C)cc1` (stereo not drawn) [compound 470], the “Grade of Effect” value in the test with Pyricularia oryzae [1] is given as “A (100%)”; in the test on Pyricularia oryzae [2], “A (From 80% to 100%)”; in the test with Pyricularia oryzae [3] it was “A (From 80% to 100%)”.

On to `CC(C)C(NC(=O)OC(C)(C)C)C(C)NC(=O)c1ccc(Cl)cc1` (stereo not drawn) [compound 471], for which the results for the “Grade of Effect” value with Pyricularia oryzae [1], in the test on Pyricularia oryzae [2] and with Pyricularia oryzae [3] were “A (100%)”, “A (From 80% to 100%)” and “A (From 80% to 100%)”, respectively.

With `Cc1ccc(C(=O)NCC(NC(=O)OC(C)(C)C)c2ccccc2)cc1` (stereo not drawn) [compound 504, N-(t-butoxycarbonyl)-N′-(4-methylbenzoyl)-1-phenyl-1,2-ethylenediamine], the “Grade of Effect” value in the test with Pyricularia oryzae [1] is “B (80% or more and less than 100%)”; in the test on Pyricularia oryzae [2], “B (50% or more and less than 80%)”; in the test on Pyricularia oryzae [3], “B (50% or more and less than 80%)”.
